Experimental data: patent US20090105349A1, “ANDROGEN MODULATORS” (WARNER-LAMBERT COMPANY LLC, priority 2004, published 2009)
Substitutions are numbered along the chain they refer to.

Target: T1, hAR (human androgen receptor) (Homo sapiens, UniProt P10275)
T1 construct: made in house; host or cells: baculovirus/Sf9 insect cells (crude extract)
T1 sequence (P10275 1-920): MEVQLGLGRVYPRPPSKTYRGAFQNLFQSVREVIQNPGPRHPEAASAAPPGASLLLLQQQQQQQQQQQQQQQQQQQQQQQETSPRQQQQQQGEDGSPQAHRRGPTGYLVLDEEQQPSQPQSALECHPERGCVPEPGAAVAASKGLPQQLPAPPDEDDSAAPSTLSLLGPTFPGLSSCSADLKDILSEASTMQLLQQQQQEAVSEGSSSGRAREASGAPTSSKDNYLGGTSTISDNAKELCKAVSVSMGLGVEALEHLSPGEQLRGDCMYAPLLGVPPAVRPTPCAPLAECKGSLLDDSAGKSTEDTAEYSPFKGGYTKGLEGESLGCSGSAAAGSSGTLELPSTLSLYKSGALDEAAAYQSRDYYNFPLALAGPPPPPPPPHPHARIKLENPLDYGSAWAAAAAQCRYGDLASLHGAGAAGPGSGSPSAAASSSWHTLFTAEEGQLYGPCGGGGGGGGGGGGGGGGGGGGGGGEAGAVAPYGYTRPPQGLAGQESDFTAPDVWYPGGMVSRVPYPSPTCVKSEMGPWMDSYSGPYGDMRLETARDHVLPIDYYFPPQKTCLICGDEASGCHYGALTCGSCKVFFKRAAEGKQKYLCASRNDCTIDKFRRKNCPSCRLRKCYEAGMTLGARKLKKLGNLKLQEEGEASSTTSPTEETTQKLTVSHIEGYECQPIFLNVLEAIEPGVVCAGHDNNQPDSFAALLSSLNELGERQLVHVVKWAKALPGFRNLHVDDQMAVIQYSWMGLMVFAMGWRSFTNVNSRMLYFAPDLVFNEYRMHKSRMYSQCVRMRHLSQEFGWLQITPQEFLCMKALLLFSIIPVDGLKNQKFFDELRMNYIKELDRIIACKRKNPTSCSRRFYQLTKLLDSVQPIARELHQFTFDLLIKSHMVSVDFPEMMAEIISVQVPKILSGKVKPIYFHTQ
Test: Competitive hAR binding assay with 3H-DHT tracer
Settings: not given
Protocol: The description below describes how the assay was carried out.
Competitive binding analysis was performed on baculovirus/Sf9 generated hAR extracts in the presence or absence of different concentrations of test agent and a fixed concentration of ^3H-dihydrotestosterone (3H-DHT) as tracer. […] Subsequently, the binding reactions are washed three times to completely remove excess unbound ^3H-DHT. hAR bound ^3H-DHT levels are determined in the presence of compounds (i.e. competitive binding) and compared to levels bound when no competitor is present (i.e. maximum binding). Compound binding affinity to the hAR is expressed as the concentration of compound at which one half of the maximum binding is inhibited.

Q: For Cc1cc(C)c(Oc2ccc(C#N)cc2Cl)c(C)c1 [Example 15, 3-Chloro-(2,4,6-trimethyl-phenoxy)-benzonitrile], which IC50 is on record?
A: 16 nM

Q: CCOc1ccccc1Oc1ccc(C#N)c(Cl)c1 [Example 70, 2-Chloro-4-(2-ethoxy-phenoxy)-benzonitrile] was tested. Which IC50 did it give?
A: 19 nM

Q: With Cc1ccc(F)c(Oc2ccc(C#N)cc2Cl)c1F [Example 6, 3-Chloro-(2,6-difluro-5-methyl-phenoxy)benzonitrile] as the compound, how does the IC50 read?
A: 59 nM

Q: With CC(N)c1cc(F)ccc1Oc1ccc(C#N)c(C(F)(F)F)c1 (stereo not shown) [Example 122, 4-[2-(1-aminoethyl)-4-fluoro-phenoxy]-2-trifluoromethyl-benzonitrile] as the compound, how does the IC50 read?
A: 2 nM

Same assay, conditions: baculovirus/Sf9 hAR extract, 1 nM 3H-DHT, one hour at 4° C; mean of multiple tests; read-out: AR Binding IC50

Q: Which IC50 does the source give for N#Cc1ccc(Oc2ccccc2[N+](=O)[O-])cc1C(F)(F)F [Example 77, 4-(2-Nitro-phenoxy)-2-trifluoromethyl-benzonitrile] here?
A: 458 nM

Q: How did the IC50 turn out when CC(=O)c1ccccc1Oc1ccc(C#N)c(C(F)(F)F)c1 [Example 88, 4-(2-Acetyl-phenoxy)-2-trifluoromethyl-benzonitrile] was run?
A: 276 nM

Q: For CCCc1ccccc1Oc1ccc(C#N)cc1Cl [Example 17, 3-Chloro-4-(2-propyl-phenoxy)-benzonitrile], which IC50 is on record?
A: 102 nM

Q: N#Cc1ccc(Oc2ccccc2C(N)=O)cc1Cl [Example 8, 2-(3-Chloro-4-cyano-phenoxy)-benzamide] was tested. Which IC50 did it give?
A: 222 nM

Q: With N#Cc1ccc(Oc2ccc(F)cc2)cc1Cl [Example 52, 2-Chloro-4-(4-fluoro-phenoxy)-benzonitrile] as the compound, how does the IC50 read?
A: 152 nM

Q: With N#Cc1ccccc1Oc1ccc(C#N)c(C(F)(F)F)c1 [Example 112, 4-(2-Cyano-phenoxy)-2-trifluoromethyl-benzonitrile] as the compound, how does the IC50 read?
A: 315 nM

Q: How did the IC50 turn out when CCN(CC)Cc1c(C)ccc(C)c1Oc1ccc(C#N)c(C(F)(F)F)c1 [Example 89, 4-(2-Diethylaminomethyl-3,6-dimethyl-phenoxy)-2-trifluoromethyl-benzonitrile] was run?
A: 255 nM

Q: For N#Cc1ccc(Oc2ccc3c(c2)CCC3)cc1Cl [Example 43, 2-Chloro-4-(indan-5-yloxy)-benzonitrile], which IC50 is on record?
A: 439 nM

Q: How did the IC50 turn out when N#Cc1ccc(Oc2ccccc2[N+](=O)[O-])c(Cl)c1 [Example 2, 3-Chloro-4-(2-nitro-phenoxy)-benzonitrile] was run?
A: 472 nM

Q: With Cc1ccc(-c2ccc(Oc3ccc(C#N)c(Cl)c3)c(C)c2)cc1 [Example 58, 2-Chloro-4-(3,4′-dimethyl-biphenyl-4-yloxy)-benzonitrile] as the compound, how does the IC50 read?
A: 436 nM

Q: For Cc1ccc(Oc2ccc(C#N)cc2Cl)c(C)c1 [Example 21, 3-Chloro-4-(2,4-dimethyl-phenoxy)-benzonitrile], which IC50 is on record?
A: 263 nM

Q: How did the IC50 turn out when Cc1ccc(C(C)C)c(Oc2ccc(C#N)cc2Cl)c1 [Example 14, 3-Chloro-4-(2-isopropyl-5-methyl-phenoxy)-benzonitrile] was run?
A: 375 nM

Q: How did the IC50 turn out when CCOC(=O)c1ccc(Oc2ccc(C#N)c(Cl)c2)c(OC)c1 [Example 55, 4-(3-Chloro-4-cyano-phenoxy)-3-methoxy-benzoic acid ethyl ester] was run?
A: 300 nM

Q: C[C@H](O)CNC(=O)c1ccccc1Oc1ccc(C#N)c(C(F)(F)F)c1 [Example 113, 2-(4-Cyano-3-trifluoromethyl-phenoxy)-N-(2-hydroxy-propyl)-benzamide] was tested. Which IC50 did it give?
A: 353 nM

Q: N#Cc1ccc(Oc2cccc3ccccc23)c(Cl)c1 [Example 72, 3-Chloro-4-(naphthalen-1-yloxy)-benzonitrile] was tested. Which IC50 did it give?
A: 478 nM

Q: With COc1ccc(C)cc1Oc1ccc(C#N)cc1Cl [Example 22, 3-Chloro-4-(2-methoxy-5-methyl-phenoxy)-benzonitrile] as the compound, how does the IC50 read?
A: 491 nM

Q: Which IC50 does the source give for CCSc1ccccc1Oc1ccc(C#N)cc1Cl [Example 1, 3-Chloro-4-(2-ethylsulfanyl-phenoxy)-benzonitrile] here?
A: 281 nM

Q: CC(=O)c1ccc(Oc2ccc(C#N)c(C(F)(F)F)c2)cc1 [Example 75, 4-(4-Acetyl-phenoxy)-2-trifluoromethyl-benzonitrile] was tested. Which IC50 did it give?
A: 443 nM

Q: Which IC50 does the source give for Cc1ccc(Oc2ccc(C#N)c(Cl)c2)c(C(C)(C)C)c1 [Example 73, 4-(2-tert-Butyl-4-methyl-phenoxy)-2-chloro-benzonitrile] here?
A: 253 nM

Q: For CCN(CC)C(=O)c1ccccc1Oc1ccc(C#N)cc1Cl [Example 18, 2-(2-Chloro-4-cyano-phenoxy)-N,N-diethyl-benzamide], which IC50 is on record?
A: 402 nM

Q: For CC(C)(CO)CNC(=O)c1ccccc1Oc1ccc(C#N)c(C(F)(F)F)c1 [Example 114, 2-(4-Cyano-3-trifluoromethyl-phenoxy)-N-(3-hydroxy-2,2-dimethyl-propyl)-benzamide], which IC50 is on record?
A: 402 nM

Q: How did the IC50 turn out when Cc1ccc(Oc2ccc(C#N)c(Cl)c2)c(Cc2ccccc2)c1 [Example 62, 4-(2-Benzyl-4-methyl-phenoxy)-2-chloro-benzonitrile] was run?
A: 326 nM

Q: COc1cc(C(C)=O)ccc1Oc1ccc(C#N)c(C(F)(F)F)c1 [Example 74, 4-(4-Acetyl-2-methoxy-phenoxy)-2-trifluoromethyl-benzonitrile] was tested. Which IC50 did it give?
A: 1480 nM

Q: For Cc1ccc(C)c(Oc2ccc(C#N)cc2Cl)c1 [Example 9, 3-Chloro-4-(2,5-dimethyl-phenoxy)-benzonitrile], which IC50 is on record?
A: 356 nM

Q: How did the IC50 turn out when N#Cc1ccc(Oc2ccccc2OCc2ccccc2)cc1C(F)(F)F [Example 92, 4-(2-Benzyloxy-phenoxy)-2-trifluoromethyl-benzonitrile] was run?
A: 361 nM

Q: Which IC50 does the source give for C=CCc1cccc(C)c1Oc1ccc(C#N)cc1Cl [Example 11, 4-(2-Allyl-6-methyl-phenoxy)-3-chloro-benzonitrile] here?
A: 242 nM

Q: Which IC50 does the source give for Cc1cccc(Oc2ccc(C#N)cc2Cl)c1 [Example 28, 3-Chloro-4-m-tolyloxy-benzonitrile] here?
A: 412 nM

Q: With CCOc1ccccc1Oc1ccc(C#N)cc1Cl [Example 71, 3-Chloro-4-(2-ethoxy-phenoxy)-benzonitrile] as the compound, how does the IC50 read?
A: 299 nM

Target: T2, androgen receptor in MDA-MB453-MMTV clone 54-19 cells (Homo sapiens, UniProt P10275)
T2 sequence (P10275 1-920 Q868H): T1 sequence (P10275 1-920) with Q868H
Test: AR antagonist cell assay (MMTV-luciferase reporter)
Assay type: cell-based
Settings: MDA-MB453-MMTV clone 54-19, inhibition of DHT induced luciferase, 17 hr; mean of multiple tests; read-out: AR Cell IC50
Protocol: The compounds ability to antagonize the effects of androgen on the androgen receptor were determined in a whole cell assay as described immediately below.
This cell line is a stable transfected cell line with MDA-MB453 cell background (a human breast tumor cell line expressing androgen receptor). A MMTV minimal promoter containing ARE was first cloned in front of a firefly luciferase reporter gene. Then the cascade was cloned into transfection vector pUV120puro. […] Puromycin resistant stable cell line was selected.
Plating medium: DMEM (phenol red free), 10% charcoal treated HyClone serum, 1% L-glutamine
Assay medium: DMEM (phenol red free), 1% charcoal treated HyClone serum, 1% L-glutamine, and 1% penicillin/streptomycin
Assay procedure: • 1. Cells are maintained in culture medium, splitting cells when they reach 80-90% confluence • 2. To test compounds, 10,000 cells/well are plated to opaque 96 cell culture plate in 100 ul/well plating medium, culture for overnight at 37° C. in cell culture incubator • 3. […] Add 10 ul/well freshly prepared DHT (final concentration at […]) to each well, incubate at 37° C. for 17 hr (overnight) • 5.
The results are reported as the mean of multiple tests as described below (the numbers of tests are indicated in the footnote). N.D. denotes that the compound was not tested.

Q: With CC(=O)c1ccccc1Oc1ccc(C#N)c(C(F)(F)F)c1 [Example 88, 4-(2-Acetyl-phenoxy)-2-trifluoromethyl-benzonitrile] as the compound, how does the IC50 read?
A: 123 nM

Q: For CCCc1ccccc1Oc1ccc(C#N)cc1Cl [Example 17, 3-Chloro-4-(2-propyl-phenoxy)-benzonitrile], which IC50 is on record?
A: 861 nM

Q: Which IC50 does the source give for N#Cc1ccc(Oc2ccccc2C(N)=O)cc1Cl [Example 8, 2-(3-Chloro-4-cyano-phenoxy)-benzamide] here?
A: > 1000 nM

Q: How did the IC50 turn out when N#Cc1ccc(Oc2ccc(F)cc2)cc1Cl [Example 52, 2-Chloro-4-(4-fluoro-phenoxy)-benzonitrile] was run?
A: 261 nM

Q: How did the IC50 turn out when Cc1cc(C)c(Oc2ccc(C#N)cc2Cl)c(C)c1 [Example 15, 3-Chloro-(2,4,6-trimethyl-phenoxy)-benzonitrile] was run?
A: > 1000 nM
